Ends that are not written are not given here.
Columns and labels:
[1] = target: T1, human Cav3.2 calcium channel (Homo sapiens, UniProt O95180); assay: Whole-cell patch clamp on HEK293 cells stably expressing the human Cav3.2 calcium channel; assay type: cell-based; settings: CaV3.2 current, HEK293, FIG. 8
T1 construct: expressed in transfected cells
Procedure: Starting from this stock concentration, the peptides were diluted in a solution corresponding to the extracellular solution used for the patch clamp analysis. This solution has the following composition (in mM): NaCl 135, TEACl 20, HEPES 10, CaCl2 2, MgCl21 (pH 7.3 with TEAOH).
HEK293 cells (ATCC) stably expressing the complementary DNA sequence of the human Cav3.2 calcium channel were used. At each passage of the cell line, cells were seeded at low density on culture dishes for “patch clamp” analysis (molecular electrophysiology).
The electrophysiological recordings were made by the “patch clamp” technique in the “whole cell” configuration using an Axopatch200B amplifier controlled by a Digidata interface and the pClamp10 software (Molecular Devices). The extracellular recording solution containing 2 mM calcium is described above.
The intrapipette solution used for the recordings has the following composition: CsCl 130 mM, HEPES 10 mM, EGTA 10 mM, CaCl2 2 mM, MgCl2 1 mM, MgATP 4 mM, TrisGTP 0.3 mM (pH 7.3 with NaOH). The results are analyzed using [sequence] (registered trademark), EXCEL (registered trademark) and [sequence] (registered trademark) software. […]
These “dose-effect” curves were analyzed with [sequence] […]

human Cav3.2 = target: T2, human Cav3.2 (Homo sapiens, UniProt O95180); assay: Double microelectrode imposed-voltage recording of CaV3.2 current in Xenopus oocytes; assay type: cell-based; settings: 5 mM barium, depolarization at -30 mV from -100 mV, after 30 seconds (FIG. 2)
T2 construct: expressed in transfected cells; host or cells: Xenopus laevis oocytes (cDNA injection)
Procedure: The current is recorded in a solution containing 5 mM barium as charge carrier and it is produced by depolarization at −30 mV starting from a rest potential of −100 mV.
The cDNA coding for human Cav3.2 is injected into oocytes of Xenopus (Xenopus laevis) as described in Altier, C., Dubel, S. J., Barrére, C., Jarvis, S. E., Stotz, S. C., Spaetgens, R. L., Scott, J. D., Cornet, V., De Waard, M., Zamponi, G. W., Nargeot, J. and Bourinet, E. (2002) “Trafficking of L-type calcium channels mediated by postsynaptic scaffolding protein AKAP79.” J. Biol. Chem., 277, 33598-33603 (Ref 5) and in Dubel, S. J., Altier, C., Chaumont, S., Lory, P., Bourinet, E. and Nargeot, J. (2004) “Plasma Membrane Expression of T-type Calcium Channel {alpha}1 Subunits Is Modulated by High Voltage-activated Auxiliary Subunits.” J Biol Chem, 279, 29263-29269 (Ref 6). The currents are recorded by the technique of imposed voltage by double microelectrode using a [sequence]500 amplifier (registered trademark) (MOLECULAR DEVICES (registered trademark)) controlled by the PCLAMP9 software (registered trademark). […] The fractions (10 μl) are applied manually, directly on the oocyte recorded by means of a pipette.

C57BL/6J mice [2] = assay: Tail immersion test in a water bath at 46° C. (thermal pain); assay type: in vivo; settings: intrathecal injection, 10 and 100 nM, versus control group receiving physiological solution
Procedure: Mice are used for observing the analgesic effect of the peptide of the invention with respect to pain induced by thermal stimuli.
(§1) The mice are C57BL/6J wild-type mice and C57BL/6J CaV3.2−/− mice. The total number of mice is 10 wild-type and 10 CaV3.2−/−.
Two groups of mice (C57BL/6J) are used, one group injected intrathecally with a physiological solution comprising the peptide of the invention at a concentration of 10 and 100 nM and a second group (control group) receiving only intrathecal injection of physiological solution alone. The mice are then submitted to the test of immersion of the tail in a water bath at 46° C. The purpose of this experiment is to determine the time after which the mice react to the painful heat, thus showing the threshold of appearance of the painful signal connected with perception of heat. The same experiment is conducted in parallel on two other groups of C57BL/6J mice lacking the gene coding for the T-type calcium channel encoded by the CaV3.2 subunit. The purpose of this experiment is to show the selectivity of the peptide of the invention.

C57BL/6J mice [3] = assay: Mechanical stimulation test with von Frey bristles; assay type: in vivo; settings: intrathecal injection, 10 and 100 nM, versus control group receiving physiological solution
Procedure: Mice are used for observing the analgesic effect of the peptide of the invention with respect to mechanical stimuli.
as §1
Two groups of mice (C57BL/6J) are used, one group injected intrathecally with a physiological solution comprising the peptide of the invention at a concentration of 10 and 100 nM and a second group (control group) only receiving intrathecal injection of the physiological solution alone. The mice are then submitted to the mechanical stimulation test with von Frey bristles. The purpose of this experiment is to determine the threshold of reaction to a mechanical stimulus of increasing intensity applied on the arch of the foot. The animals' reaction threshold is correlated with the appearance of the painful signal connected with the perception of mechanical pressure. The same experiment is conducted in parallel on two other groups of C57BL/6J mice lacking the gene coding for the T-type calcium channel encoded by the CaV3.2 subunit. The purpose of this experiment is to show the selectivity of the peptide of the invention.

T1 sequence (O95180 whole entry): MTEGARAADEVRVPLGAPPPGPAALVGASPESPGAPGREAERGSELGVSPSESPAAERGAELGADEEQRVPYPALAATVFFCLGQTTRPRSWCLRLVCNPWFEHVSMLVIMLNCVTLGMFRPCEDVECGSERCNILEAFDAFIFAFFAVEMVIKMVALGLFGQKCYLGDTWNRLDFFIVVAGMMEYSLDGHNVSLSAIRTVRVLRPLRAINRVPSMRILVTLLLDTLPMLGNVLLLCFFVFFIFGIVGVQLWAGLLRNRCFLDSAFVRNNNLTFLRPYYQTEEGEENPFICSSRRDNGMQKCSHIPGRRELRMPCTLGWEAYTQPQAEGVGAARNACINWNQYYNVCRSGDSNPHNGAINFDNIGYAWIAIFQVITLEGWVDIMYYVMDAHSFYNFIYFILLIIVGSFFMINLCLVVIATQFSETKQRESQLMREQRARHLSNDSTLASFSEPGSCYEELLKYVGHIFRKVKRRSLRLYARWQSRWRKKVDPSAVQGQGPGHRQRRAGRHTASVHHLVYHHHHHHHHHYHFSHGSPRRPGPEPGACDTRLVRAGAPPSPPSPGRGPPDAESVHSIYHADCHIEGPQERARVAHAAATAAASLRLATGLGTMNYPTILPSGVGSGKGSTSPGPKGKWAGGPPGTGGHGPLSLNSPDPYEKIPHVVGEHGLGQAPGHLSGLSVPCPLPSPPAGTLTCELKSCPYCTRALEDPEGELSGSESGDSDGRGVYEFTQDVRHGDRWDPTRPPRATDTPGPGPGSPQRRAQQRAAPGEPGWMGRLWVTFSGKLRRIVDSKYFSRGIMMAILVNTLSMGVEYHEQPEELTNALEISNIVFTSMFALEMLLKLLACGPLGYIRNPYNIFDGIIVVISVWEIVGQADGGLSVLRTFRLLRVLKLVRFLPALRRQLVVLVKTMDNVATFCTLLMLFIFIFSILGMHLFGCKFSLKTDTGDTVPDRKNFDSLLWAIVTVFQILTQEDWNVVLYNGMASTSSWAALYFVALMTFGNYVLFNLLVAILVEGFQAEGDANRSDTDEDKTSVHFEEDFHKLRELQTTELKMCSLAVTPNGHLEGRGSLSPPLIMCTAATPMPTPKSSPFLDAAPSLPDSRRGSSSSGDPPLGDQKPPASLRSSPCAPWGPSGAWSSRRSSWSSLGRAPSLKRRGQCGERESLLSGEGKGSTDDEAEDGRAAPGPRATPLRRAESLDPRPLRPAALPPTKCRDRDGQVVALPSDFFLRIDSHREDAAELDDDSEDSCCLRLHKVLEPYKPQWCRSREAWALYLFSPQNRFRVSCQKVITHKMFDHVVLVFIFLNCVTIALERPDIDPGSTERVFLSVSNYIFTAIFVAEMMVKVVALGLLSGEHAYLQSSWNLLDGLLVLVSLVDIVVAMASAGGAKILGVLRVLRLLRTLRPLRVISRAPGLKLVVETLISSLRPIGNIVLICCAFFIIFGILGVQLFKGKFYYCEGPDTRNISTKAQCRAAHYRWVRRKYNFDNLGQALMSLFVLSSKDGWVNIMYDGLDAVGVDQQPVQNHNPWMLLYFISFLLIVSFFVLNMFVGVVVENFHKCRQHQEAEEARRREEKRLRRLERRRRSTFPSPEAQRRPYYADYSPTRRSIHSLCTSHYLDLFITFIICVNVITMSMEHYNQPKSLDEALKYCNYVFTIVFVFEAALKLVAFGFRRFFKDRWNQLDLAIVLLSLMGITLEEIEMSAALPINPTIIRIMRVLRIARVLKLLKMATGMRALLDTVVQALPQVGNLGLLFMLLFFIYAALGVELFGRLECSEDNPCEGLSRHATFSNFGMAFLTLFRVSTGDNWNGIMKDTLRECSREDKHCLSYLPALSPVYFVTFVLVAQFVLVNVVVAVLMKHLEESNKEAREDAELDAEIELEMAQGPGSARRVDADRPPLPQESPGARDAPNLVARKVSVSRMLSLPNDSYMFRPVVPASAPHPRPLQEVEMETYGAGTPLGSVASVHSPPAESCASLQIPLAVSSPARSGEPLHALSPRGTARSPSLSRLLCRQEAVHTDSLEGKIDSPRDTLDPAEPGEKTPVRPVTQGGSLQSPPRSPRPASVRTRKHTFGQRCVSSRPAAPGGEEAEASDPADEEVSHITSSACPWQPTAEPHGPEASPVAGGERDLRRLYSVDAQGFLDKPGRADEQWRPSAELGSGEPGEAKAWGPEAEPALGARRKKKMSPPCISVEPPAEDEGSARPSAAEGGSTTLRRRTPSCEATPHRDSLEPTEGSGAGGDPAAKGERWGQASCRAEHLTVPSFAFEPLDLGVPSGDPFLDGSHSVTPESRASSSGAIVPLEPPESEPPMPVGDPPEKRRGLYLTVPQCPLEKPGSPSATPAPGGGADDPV
T2 sequence (O95180 whole entry): as above

Row | Compound | Hill number (slope of dose-effect curve) [1] | current of the Cav3.2 channel after application of the toxin (human Cav3.2) | time to react to heat (C57BL/6J mice [2]) | threshold of perception of mechanical pressure (C57BL/6J mice [3])
1 | CC[C@H](C)[C@H](NC(=O)[C@H](CCCCN)NC(=O)[C@@H]1CSSC[C@@H]2NC(=O)[C@@H]3CCCN3C(=O)[C@H](CCCNC(=N)N)NC(=O)[C@H](CCC(=O)O)NC(=O)[C@H](CO)NC(=O)[C@H](CC(=O)O)NC(=O)[C@@H]3CSSC[C@H](NC(=O)[C@H](C(C)C)NC(=O)[C@H](CC(C)C)NC(=O)CNC(=O)[C@H](CCC(=O)O)NC(=O)[C@H](CSSC[C@H](NC(=O)[C@@H](N)Cc4ccc(O)cc4)C(=O)N[C@@H](CCC(N)=O)C(=O)N[C@@H](CCCCN)C(=O)N[C@@H](Cc4ccccc4)C(=O)N[C@@H](CC(C)C)C(=O)N[C@@H](Cc4c[nH]c5ccccc45)C(=O)N[C@@H]([C@@H](C)O)C(=O)N3)NC2=O)C(=O)N[C@@H](CCCNC(=N)N)C(=O)N[C@@H](CC(C)C)C(=O)N[C@@H](Cc2c[nH]c3ccccc23)C(=O)N1)C(=O)N[C@@H](CC(N)=O)C(=O)O [natural toxin] | 0.87 | strongly inhibited | – | –
2 | CC[C@H](C)[C@H](NC(=O)[C@H](CCCCN)NC(=O)[C@@H]1CSSC[C@@H]2NC(=O)[C@@H]3CCCN3C(=O)[C@H](CCCNC(=N)N)NC(=O)[C@H](CCC(=O)O)NC(=O)[C@H](CO)NC(=O)[C@H](CC(=O)O)NC(=O)[C@@H]3CSSC[C@H](NC(=O)[C@H](C(C)C)NC(=O)[C@H](CC(C)C)NC(=O)CNC(=O)[C@H](CCC(=O)O)NC(=O)[C@H](CSSC[C@H](NC(=O)[C@@H](N)Cc4ccc(O)cc4)C(=O)N[C@@H](CCC(N)=O)C(=O)N[C@@H](CCCCN)C(=O)N[C@@H](Cc4ccccc4)C(=O)N[C@@H](CC(C)C)C(=O)N[C@@H](Cc4c[nH]c5ccccc45)C(=O)N[C@@H]([C@@H](C)O)C(=O)N3)NC2=O)C(=O)N[C@@H](CCCNC(=N)N)C(=O)N[C@@H](CC(C)C)C(=O)N[C@@H](Cc2c[nH]c3ccccc23)C(=O)N1)C(=O)N[C@@H](CC(N)=O)C(=O)O [synthetic peptide] | 0.89 | – | – | –
3 | YCQKFLWTCDSERPCCEGLVCRLWCKIN (disulfide (positions not given here); not fully specified (bridges); also: 3 disulfide bridges between the 6 cysteines, pairing not given here) [peptide of sequence SEQ ID NO 1] | – | – | significantly longer | significantly higher

Reference: patent US8664179B2, “Identification of novel antagonist toxins of T-type calcium channel for analgesic purposes” (Centre National de la Recherche Scientifique (CNRS), priority 2009, dated 2014)
